The melting point is the temperature of the solid-liquid transition.

Where two headings read alike, the source gives them in different places.

This note sets out measurements from US20170050957A1, “4-AMINO-6-(HETEROCYCLIC)PICOLINATES AND 6-AMINO-2-(HETEROCYCLIC)PYRIMIDINE-4-CARBOXYLATES AND THEIR USE AS HERBICIDES” (Dow AgroSciences LLC, priority 2013, published 2017).

For data set [1], the system named is Key Grass and Sedge Weeds as well as Grass Crops. Description: Post-emergent Test II herbicidal activity (Table 16). The following applies: for Visual Growth Reduction (%) 14 Days After Application, ECHCG / Visual Growth Reduction (%) 14 Days After Application, SETFA / Visual Growth Reduction (%) 14 Days After Application, ZEAMX / Visual Growth Reduction (%) 14 Days After Application, ORYSA / Visual Growth Reduction (%) 14 Days After Application, TRZAS / Visual Growth Reduction (%) 14 Days After Application, CYPES: 14 d; for pest or weed control at 35 g/ha / pest or weed control at 70 g/ha / pest or weed control at 140 g/ha: post-emergence, 336 h, 14 days after application. It counts as in vivo. Here is the method: (§1) Post-emergent Test II: Seeds or nutlets of the desired test plant species were planted in Sun Gro Metro-Mix® 360 planting mixture, which typically has a pH of 6.0 to 6.8 and an organic matter content of about 30 percent, in plastic pots with a surface area of 64 square centimeters. When required to ensure good germination and healthy plants, a fungicide treatment and/or other chemical or physical treatment was applied. The plants were grown for 7-21 d in a greenhouse with an approximate 15 h photoperiod which was maintained at about 23-29° C. during the day and 22-28° C. during the night. Nutrients and water were added on a regular basis and supplemental lighting was provided with overhead metal halide 1000-Watt lamps as necessary. The plants were employed for testing when they reached the first or second true leaf stage.
(§2) A weighed amount, determined by the highest rate to be tested, of each test compound was placed in a 25 mL glass vial and was dissolved in 4 mL of a 97:3 v/v mixture of acetone and DMSO to obtain concentrated stock solutions. […] The concentrated stock solutions obtained were diluted with 20 mL of an aqueous mixture containing acetone, water, isopropyl alcohol, DMSO, Atplus 411F crop oil concentrate, and Triton® X-155 surfactant in a 48.5:39:10:1.5:1.0:0.02 v/v ratio to obtain spray solutions containing the highest application rates. Additional application rates were obtained by serial dilution of 12 mL of the high rate solution into a solution containing 2 mL of 97:3 v/v mixture of acetone and DMSO and 10 mL of an aqueous mixture containing acetone, water, isopropyl alcohol, DMSO, Atplus 411F crop oil concentrate, and Triton X-155 surfactant in a 48.5:39:10:1.5:1.0:0.02 v/v ratio to obtain 1/2×, 1/4×, 1/8× and 1/16× rates of the high rate. Compound requirements are based upon a 12 mL application volume at a rate of 187 liters per hectare (L/ha). Formulated compounds were applied to the plant material with an overhead Mandel track sprayer equipped with 8002E nozzles calibrated to deliver 187 L/ha over an application area of 0.503 square meters at a spray height of 18 inches (43 cm) above the average plant canopy height. Control plants were sprayed in the same manner with the solvent blank.
(§3) The treated plants and control plants were placed in a greenhouse as described above and watered by subirrigation to prevent wash-off of the test compounds. After 14 d, the condition of the test plants as compared with that of the untreated plants was determined visually and scored on a scale of 0 to 100 percent where 0 corresponds to no injury and 100 corresponds to complete kill.

The subject of data set [2] is Key Broadleaf Weed and Crop Species. The experiment in a line: Post-emergent Test II herbicidal activity (Table 15). Conditions: post-emergence, 336 h, 14 d; for pest or weed control at 35 g/ha: 35 g ai/ha. It is filed as in vivo. Here is the method: as §1, §2, §3

`Cn1ncc2cc(-c3nc(C(=O)O)c(Cl)c(N)c3F)ccc21` [Compound 4.04] showed a melting point of 186 to 188 °C.

As for `Nc1c(F)c(-c2ccc3sccc3c2)nc(C(=O)O)c1Cl` [Compound 3.04], the melting point lay in the range of 149 to 150 °C.

Compound `Cn1ncc2c(-c3nc(C(=O)O)c(Cl)c(N)c3F)cccc21` [Compound 4.11] returned a melting point of 173 to 175 °C.

For `COC(=O)c1nc(-c2cccc3[nH]ncc23)c(F)c(N)c1Cl` [Compound 4.12], the melting point lay within 212 to 215 °C.

As to `Nc1c(F)c(-c2ccc3[nH]ncc3c2)nc(C(=O)O)c1Cl` [Compound 4.02], the melting point was in the range of 284 to 287 °C.

`C=Cc1c(N)nc(-c2ccc3cc[nH]c3c2F)nc1C(=O)OC` [Compound 1.38] came in with a melting point of 181 to 182 °C.

In turn, `COC(=O)c1nc(-c2cccc3c(Br)csc23)c(F)c(N)c1Cl` [Compound 3.26, Methyl 4-amino-6-(3-bromobenzo[b]thiophen-7-yl)-3-chloro-5-fluoropicolinate] showed a melting point of 181 to 184 °C.

Compound `Cn1ccc2c(-c3nc(C(=O)O)c(Cl)c(N)c3F)cccc21` [Compound 1.42] came in with a melting point of 158 to 160 °C.

Consider `COC(=O)c1nc(-c2ccc(Cl)c3cc[nH]c23)nc(N)c1OC` [Compound 1.50], for which the melting point was in the range of 147 to 149 °C.

For the compound `COC(=O)c1nc(-c2cccc3c2ccn3C)c(F)c(N)c1Cl` [Compound 1.41], the melting point was 167 to 169 °C.

`COC(=O)c1nc(-c2ccc3occc3c2)c(F)c(N)c1Cl` [Compound 2.01]: the melting point was 114 to 117 °C.

Turning to `Nc1c(Cl)c(C(=O)O)nc(-c2ccc3cc[nH]c3c2)c1Cl` [Compound 106], the “Visual Growth Reduction (%) 14 Days After Application, ECHCG” value in data set [1] (barnyardgrass (Echinochloa crus-galli), 35 g ai/ha) was “G (0-29)”; in data set [1] (barnyardgrass (Echinochloa crus-galli), 70 g ai/ha) it was “D (60-74)”; in data set [1] (barnyardgrass (Echinochloa crus-galli), 140 g ai/ha), “C (75-84)”. For the same compound, the “Visual Growth Reduction (%) 14 Days After Application, SETFA” value in data set [1] (giant foxtail (Setaria faberi), 35 g ai/ha) was “G (0-29)”; in data set [1] (giant foxtail (Setaria faberi), 70 g ai/ha), “G (0-29)”; in data set [1] (giant foxtail (Setaria faberi), 140 g ai/ha) it was “G (0-29)”. In addition, the “Visual Growth Reduction (%) 14 Days After Application, ZEAMX” value is reported as “G (0-29)” in data set [1] (maize, corn (Zea mays), 35 g ai/ha); “G (0-29)” in data set [1] (maize, corn (Zea mays), 70 g ai/ha); “G (0-29)” in data set [1] (maize, corn (Zea mays), 140 g ai/ha). For the same compound, the “Visual Growth Reduction (%) 14 Days After Application, ORYSA” value in data set [1] (rice (Oryza sativa), 35 g ai/ha) is listed as “G (0-29)”; in data set [1] (rice (Oryza sativa), 70 g ai/ha), “G (0-29)”; in data set [1] (rice (Oryza sativa), 140 g ai/ha), “G (0-29)”. Moreover, the “Visual Growth Reduction (%) 14 Days After Application, TRZAS” value is given as “G (0-29)” in data set [1] (wheat, spring (Triticum aestivum), 35 g ai/ha); “G (0-29)” in data set [1] (wheat, spring (Triticum aestivum), 70 g ai/ha); “G (0-29)” in data set [1] (wheat, spring (Triticum aestivum), 140 g ai/ha). The “Visual Growth Reduction (%) 14 Days After Application, CYPES” value in data set [1] (yellow nutsedge (Cyperus esculentus), 35 g ai/ha) is recorded as “G (0-29)”; in data set [1] (yellow nutsedge (Cyperus esculentus), 70 g ai/ha), “G (0-29)”; in data set [1] (yellow nutsedge (Cyperus esculentus), 140 g ai/ha), “G (0-29)”.

On to `COC(=O)c1nc(-c2ccc3c(N(C)C)noc3c2)c(F)c(N)c1Cl` [Compound 8.01], for which the pest or weed control at 35 g/ha lay within 0 to 29% in data set [1] (Cyperus esculentus, yellow nutsedge (Cyperus esculentus), 35 g ai/ha, read-out: Visual Growth Reduction (%) 14 Days After Application CYPES); 0 to 29% in data set [1] (Echinochloa crus-galli, barnyardgrass (Echinochloa crus-galli), 35 g ai/ha, read-out: Visual Growth Reduction (%) 14 Days After Application ECHCG); 0 to 29% in data set [1] (Oryza sativa, rice (Oryza sativa), 35 g ai/ha, read-out: Visual Growth Reduction (%) 14 Days After Application ORYSA); 0 to 29% in data set [1] (Setaria faberi, giant foxtail (Setaria faberi), 35 g ai/ha, read-out: Visual Growth Reduction (%) 14 Days After Application SETFA); 0 to 29% in data set [1] (Triticum aestivum, wheat, spring (Triticum aestivum), 35 g ai/ha, read-out: Visual Growth Reduction (%) 14 Days After Application TRZAS); 0 to 29% in data set [1] (Zea mays, maize, corn (Zea mays), 35 g ai/ha, read-out: Visual Growth Reduction (%) 14 Days After Application ZEAMX). For the same compound, the pest or weed control at 35 g/ha in data set [2] (Abutilon theophrasti, velvetleaf (Abutilon theophrasti), read-out: Visual Growth Reduction (%) 14 Days After Application, ABUTH) fell in the range of 0 to 29%; in data set [2] (Amaranthus retroflexus, redroot pigweed (Amaranthus retroflexus), read-out: Visual Growth Reduction (%) 14 Days After Application, AMARE), 0 to 29%; in data set [2] (Brassica napus, oilseed rape, canola (Brassica napus), read-out: Visual Growth Reduction (%) 14 Days After Application, BRSNN) it was 0 to 29%; in data set [2] (Chenopodium album, lambsquarters (Chenopodium album), read-out: Visual Growth Reduction (%) 14 Days After Application, CHEAL), 0 to 29%; in data set [2] (Euphorbia heterophylla, wild poinsettia (Euphorbia heterophylla), read-out: Visual Growth Reduction (%) 14 Days After Application, EPHHL), 0 to 29%; in data set [2] (Helianthus annuus, sunflower (Helianthus annuus), read-out: Visual Growth Reduction (%) 14 Days After Application, HELAN), 0 to 29%. In addition, the pest or weed control at 70 g/ha in data set [1] (Cyperus esculentus, yellow nutsedge (Cyperus esculentus), 70 g ai/ha, read-out: Visual Growth Reduction (%) 14 Days After Application CYPES) fell in the range of 0 to 29%; in data set [1] (Echinochloa crus-galli, barnyardgrass (Echinochloa crus-galli), 70 g ai/ha, read-out: Visual Growth Reduction (%) 14 Days After Application ECHCG), 0 to 29%; in data set [1] (Oryza sativa, rice (Oryza sativa), 70 g ai/ha, read-out: Visual Growth Reduction (%) 14 Days After Application ORYSA), 0 to 29%; in data set [1] (Setaria faberi, giant foxtail (Setaria faberi), 70 g ai/ha, read-out: Visual Growth Reduction (%) 14 Days After Application SETFA), 0 to 29%; in data set [1] (Triticum aestivum, wheat, spring (Triticum aestivum), 70 g ai/ha, read-out: Visual Growth Reduction (%) 14 Days After Application TRZAS), 0 to 29%; in data set [1] (Zea mays, maize, corn (Zea mays), 70 g ai/ha, read-out: Visual Growth Reduction (%) 14 Days After Application ZEAMX), 0 to 29%. In addition, the pest or weed control at 70 g/ha in data set [2] (Brassica napus, oilseed rape, canola (Brassica napus), 70 g ai/ha, read-out: Visual Growth Reduction (%) 14 Days After Application, BRSNN) was in the range of 0 to 29%. The pest or weed control at 140 g/ha in data set [1] (Cyperus esculentus, yellow nutsedge (Cyperus esculentus), 140 g ai/ha, read-out: Visual Growth Reduction (%) 14 Days After Application CYPES) lay within 0 to 29%; in data set [1] (Echinochloa crus-galli, barnyardgrass (Echinochloa crus-galli), 140 g ai/ha, read-out: Visual Growth Reduction (%) 14 Days After Application ECHCG) it was 0 to 29%; in data set [1] (Oryza sativa, rice (Oryza sativa), 140 g ai/ha, read-out: Visual Growth Reduction (%) 14 Days After Application ORYSA) it was 0 to 29%; in data set [1] (Setaria faberi, giant foxtail (Setaria faberi), 140 g ai/ha, read-out: Visual Growth Reduction (%) 14 Days After Application SETFA), 0 to 29%; in data set [1] (Triticum aestivum, wheat, spring (Triticum aestivum), 140 g ai/ha, read-out: Visual Growth Reduction (%) 14 Days After Application TRZAS), 0 to 29%; in data set [1] (Zea mays, maize, corn (Zea mays), 140 g ai/ha, read-out: Visual Growth Reduction (%) 14 Days After Application ZEAMX), 0 to 29%. The pest or weed control at 140 g/ha in data set [2] (Brassica napus, oilseed rape, canola (Brassica napus), 140 g ai/ha, read-out: Visual Growth Reduction (%) 14 Days After Application, BRSNN) was 0 to 29%.
